Values of other authors as cited in patent publication US20080268488A1, “Screening Method for Dnak Inhibitors” (priority 2005, published 2008).
No end group written: not given here.

Details: aminopeptidase and carboxypeptidase cleavage products observed

| Sequence | susceptibility to proteolytic degradation in the presence of mammalian serum |
| --- | --- |
| GKPRPYSPRPTSHPRPIRV [drosocin, Gly-Lys-Pro-Arg-Pro-Tyr-Ser-Pro-Arg-Pro-Thr-Ser-His-Pro-Arg-Pro-Ile-Arg-Val] | highly susceptible to proteolytic degradation |
| VDKGSYLPRPTPPRPIYNRN [pyrrhocoricin] | highly susceptible to proteolytic degradation |
